Experimental data taken from PMC8481536, “Wells–Dawson phosphotungstates as mushroom tyrosinase inhibitors: a speciation study” (Scientific Reports, 2021).
Several values for one entry are separate records, joined by “and”; a condition that tells them apart may be missing. Equal values may be shown once.

Columns and labels:
[1] = Speciation / hydrolytic stability of POT solutions in 50 mM Na-citrate buffer pH 6.8 by 31P-NMR and 183W-NMR; assay type: physicochemical; details: for 31P-NMR spectrum 96 h after preparation compared with 48 h: for [P2W12]: signal at −8.3 ppm of hexalacunary anion; for Share of unidentified / unstable solution intermediates: 31P-NMR integrated POT signals, aged solutions; for Share of monolacunary [α2-P2W17O61]10− in solution, 48 h after preparation / Share of unchanged educt anion in solution, after 48 h / Share of unchanged educt anion in solution, fresh (1 h) / Share of monolacunary [α2-P2W17O61]10− in solution, fresh (1 h after preparation): 31P-NMR peak integration; for Share of free phosphate in solution: fresh and 48 h aged ([P2W15]), after rearrangement ([P2W12])
Description: The detailed structural information about species under the respective experimental conditions is essential for understanding of POT activity. […] The concentration of all species was calculated based on ^31P-NMR peaks integration. Since the stock solutions of each Wells–Dawson POT was used up to three days after preparation and ^183W-NMR acquisition takes 60 h, ^31P-NMR spectra for all four solutions have been recorded 1 h and 48 h after preparation to check if speciation changes occur over time. […] In the solution of intact POT one hour after preparation 12% of [α2-P^V2W^VI17O61]^10− was detected based on ^31P-NMR peaks integration (Fig. 3A), whereas 48 h after dissolution the concentration of monolacunary anion increased to 69%. […] The ^183 W-NMR spectra of monolacunary [P2W17]^10− (Fig. S8A) and trilacunary [P2W15]^12− (Fig. S8C) are in agreement with ^31P-NMR data confirming the presence of only the monolacunary anion by 9 signals. The ^31P-NMR spectrum of fresh hexalacunary POT [P2W12]^12− (Fig. 3D) points to the presence of unhydrolyzed hexalacunary [H2P^V2W^VI12O48]^12− (72%) together with a low amount of monolacunary [α2-P^V2W^VI17O61]^10− (20%). After 48 h, the signals corresponding to hexalacunary [H2P^V2W^VI12O48]^12− and monolacunary [α2-P^V2W^VI17O61]^10− decreased to 9% and 3%, respectively, while two intense signals at − 7.5 and − 9.5 ppm appeared. […] The signal at − 7.5 ppm corresponds to [P^V8W^VI48O184]^40−, which was previously detected in solutions with a high amount of NH 4^+[37]. The presence of four different POTs in [P2W12]^12− 48 h after preparation renders the detection of all species’ signals in the ^183W-NMR spectrum impossible due to their low concentrations and the low abundancy (14%) of the ^183W isotope (Fig. S8D). The most intense signals at -190.3, -191.6 and -211.3 ppm correspond to three types of W ions in cyclic [P^V8W^VI48O184]^40−[43]. ^31P-NMR spectra recorded 96 h after preparation are identical to those recorded after 48 h for [P2W18]^6−, [P2W17]^10− and [P2W15]^12−. […] In every ^31P-NMR analysis, peaks for free phosphate were observed, indicating the release of HxPO4^x−3 from the POT clusters as a consequence of partial decomposition or rearrangement (Fig. 3). The weak signals between − 12 and − 7 ppm in the ^31P-NMR spectra (Fig. 3) with a total amount of no more than 19% of all POT signals, correspond to solution intermediates of unknown identity that have been reported previously.
^183W-NMR and ^31P-NMR were recorded with a Bruker FT-NMR spectrometer Avance Neo 500 MHz (Bruker, Rheinstetten, Germany) at 25 °C. Chemical shifts were measured relative to 1 M Na2WO4 and 85% H3PO4. ^183W-NMR samples were prepared in 2.7 mL Na-citrate buffer (50 mM, pH 6.8) with a POT concentration of 2 mM with or without 1 mM L-DOPA and measured in 10 mm tubes. The experimental time was ca. 60 h, with a standard pulse program at 20.836 MHz and a 63° flip angle with 1 s relaxation delay. Subsequently, ^31P-NMR was measured at 202.53 MHz.
^183W-NMR was performed in 50 mM Na-citrate buffer at pH 6.8 to obtain insight into the chemical speciation and hydrolytic stability of POTs. The peaks of the ^183W-NMR for [P2W18]^6− are shifted by approx. 4–5 ppm downfield relative to the assignment in the literature (Table S2). The slight shifting can be explained by different buffer conditions and ionic strength of the solution with regard to the reference data.
The ^183W-NMR speciation indicates the presence of [α2-P^V2W^VI17O61]^10− anions in [P2W18]^6−, [P2W17]^10−, [P2W15]^12− at pH 6.8 (Figs. S8, S12). For the ^183W-NMR of [P2W18]^6− at pH 4 two lines (1:2) were assigned (Fig. S7), whereas for the same compound at neutral pH a mixture of [α-P^V2W^VI18O62]^6− (1:2) and [α2-P^V2W^VI17O61]^10− (2:2:2:2:1:2:2:2:2) was observed (Fig. S8). Also, the β-isomer was detected at pH 4 and pH 6.8, respectively (Figs. S7, S8). […]

aquaporin-3 = system: aquaporin-3; set-up: method as in PMID 32252345; details: cited from earlier work
P-type ATPase = system: P-type ATPase; set-up: method as in PMID 29313547; details: cited from earlier work
Ca^2+-ATPase = system: Ca^2+-ATPase; set-up: method as in PMID 29313547; details: cited from earlier work
[2] = 31P-NMR, 50 mM Na-citrate pH 6.8

| Substance | 31P-NMR spectrum 96 h after preparation compared with 48 h ([1]; 50 mM Na-citrate pH 6.8) | Share of unidentified / unstable solution intermediates ([1]; 50 mM Na-citrate pH 6.8) | Share of monolacunary [α2-P2W17O61]10− in solution, 48 h after preparation ([1]; 50 mM Na-citrate pH 6.8) | Share of unchanged educt anion in solution, after 48 h ([1]; 50 mM Na-citrate pH 6.8) [%] | Share of unchanged educt anion in solution, fresh (1 h) ([1]; 50 mM Na-citrate pH 6.8) [%] | Share of monolacunary [α2-P2W17O61]10− in solution, 48 h after preparation ([1]; 50 mM Na-citrate pH 6.8, listed as [α/β-P^V2W^VI18O62]^6−) | Influence of the substrate L-DOPA on the POT solution (reduction / speciation) ([1]; 50 mM Na-citrate pH 6.8) | Sample composition after 28 days storage ([1]; Na-citrate buffer pH 6.8, room temperature, 183W-NMR and 31P-NMR) | Dominant POT species at pH 6.8 in Na-citrate buffer [1] | Stable in Na-citrate buffer at pH 6.8 [1] | Inhibition of aquaporin-3 (aquaporin-3) | Inhibition of P-type ATPase (P-type ATPase) | Inhibition of Ca2+-ATPase (Ca^2+-ATPase) | Share of monolacunary [α2-P2W17O61]10− in solution, fresh (1 h after preparation) ([1]; 50 mM Na-citrate pH 6.8) [%] | Share of monolacunary [α2-P2W17O61]10− in solution, fresh (1 h after preparation) ([1]; 50 mM Na-citrate pH 6.8, listed as [P^V2W^VI15O56]^12−) | Share of free phosphate in solution [1, 2] [%] | Share of [P2W19O69(H2O)]14− in solution after 48 h [1, 2] [%] | Share of [P8W48O184]40− in solution after 48 h [1, 2] [%] |
| --- | --- | --- | --- | --- | --- | --- | --- | --- | --- | --- | --- | --- | --- | --- | --- | --- | --- | --- |
| K6[α/β-P^V2W^VI18O62]·14H2O [[P2W18]^6−] | identical | 9% | 69% | 15 | 88 | ~ 69% | turned blue | low amounts of the α-isomer were found, but no β-isomer was detected | Hx[α2-P^V2W^VI17O61]^(10−x)− | No | inhibited | inhibited | inhibited | – | – | – | – | – |
| K10[α2-P^V2W^VI17O61]·20H2O [[P2W17]^10−] | identical | 8% | 92% | – | – | – | no change in speciation | – | Hx[α2-P^V2W^VI17O61]^(10−x)− | Yes | – | – | – | – | – | – | – | – |
| K12[P^V2W^VI15O56]·24H2O [[P2W15]^12−] | identical | 3% and 5% | 62% and 61% | – | – | – | no change in speciation | – | Hx[α2-P^V2W^VI17O61]^(10−x)− | No | – | – | – | 62 | ~ 62% | 35 | – | – |
| (NH4)12[H2P^V2W^VI12O48]·24H2O [[P2W12]^12−] | disappeared completely | 19% | 3% | 9 | 72 | – | no change in speciation | – | [H2P^V2W^VI12O48]^12− + Hx[α2-P^V2W^VI17O61]^(10−x)− + [P^V2W^VI19O69(H2O)]^14− + [P^V8W^VI48O184]^40− | No | inhibited | inhibited | inhibited | 20 | – | 24 | 22 | 23 |
